Legend:
[1] = biological target: T1, PI3Kα (Homo sapiens, UniProt P42336); test: In vitro PI3K AlphaScreen assay; type: biochemical; conditions: average if run more than once
T1 construct: Full length p110 subunits of PI3K α, β and δ, N-terminally labeled with polyHis tag; polyHis (N); made in house; host or cells: Sf9 insect cells (baculovirus)
Experimental: In Vitro PI3K Alphascreen® Assay
The PI3K AlphaScreen® assay (PerkinElmer, Waltham, Mass.) measures the activity of a panel of four phosphoinositide 3-kinases: PI3Kα, PI3Kβ, PI3Kγ, and PI3Kδ. Each of these enzymes phosphorylates the 3′-hydroxyl group on phosphatidylinositiol (4,5)-bisphosphate (PIP2) to produce phosphatidylinositol (3,4,5)-trisphosphate (PIP3). This phosphorylation activity is measured using a GST-tagged PIP3 binding protein (Echelon Biosciences, Salt Lake City, Utah), an anti-GST-tagged Acceptor bead, and streptavidin-Donor bead. […] In the absence of this interaction, proximity of the Donor and Acceptor beads is decreased, producing a loss of luminescent signal which is inversely proportional to PI3K activity.
The enzyme reaction buffer is made using sterile water (Baxter, Deerfield, Ill.) and 50 mM Tris HCl pH 7, 14 mM MgCl2, 2 mM sodium cholate, and 100 mM NaCl. 2 mM DTT is added fresh the day of the experiment. The AlphaScreen® reaction buffer is made using sterile water and 10 mM Tris HCl pH 7.5, 150 mM NaCl, 0.10% Tween 20, and 30 mM EDTA. 1 mM DTT is added fresh the day of the experiment.
The source plates for this assay are 384-well Greiner clear polypropylene plates containing test compounds at 5mM and diluted 1:2 over 22 points. […] Source plates are replicated into 384-well Optiplates (PerkinElmer, Waltham, Mass.), 0.5 μL/well, to make assay-ready plates.
The different PI3K isoforms are each diluted in enzyme reaction buffer to 2× working solutions. […] Two different 2× substrate solutions are made in enzyme reaction buffer. In one solution, PI(4,5)P2 (Echelon Biosciences, Salt Lake City, Utah) is diluted to 10 μM and ATP is diluted to 20 μM. This solution is used in the assays testing PI3Kα and PI3Kβ. In a second solution, PI(4,5)P2 is diluted to 10 μM and ATP is diluted to 8 μM. This solution used in the assays testing PI3Kγ and PI3Kδ.
The AlphaScreen® reaction solutions are made using beads from the anti-GST AlphaScreen® kit (PerkinElmer, Waltham, Mass.). Two solutions are made in Alphascreen reaction buffer to 4× working concentrations. In one solution, biotinylated-IP4 (Echelon Biosciences, Salt Lake City, Utah) is diluted to 40 nM and streptavadin-Donor Beads are diluted to 80 μg/mL. In the second solution, PIP3-binding protein (Echelon Biosciences, Salt Lake City, Utah) is diluted to 40 nM and anti-GST-Acceptor Beads are diluted to 80 μg/mL. 10 μL/well of enzyme reaction buffer is added to Column 24 of the assay ready plates in place of enzyme. This is done for plates in the PI3Kα, β, and 67 assays.
Using a 384-well dispensing Multidrop (Titertek, Huntsville, Ala.), 10 μL/well of 2× enzyme (PI3Kα, β, δ) is added to Columns 1-23 of the appropriate assay ready plates (for PI3Kγ 10 μL is added to Columns 1-24). 10 μL/well of the appropriate substrate solution (the solution with 20 μM ATP for PI3Kα and β assays, and the solution with 8 μM ATP for PI3Kγ and δ assays) is then added to Columns 1-24 of the plates. Plates are then incubated at room temperature for 20 minutes.
In the dark, 10 μL/well of the Donor Bead solution is added to Columns 1-24 of the plates to quench the enzyme reaction. The plates are incubated at room temperature for 30 minutes. Still in the dark, 10 μL/well of the Acceptor Bead solution is also added to Columns 1-24 of the plates. The plates are then incubated in the dark for 1.5 hours. The plates are read on an Envision Multilabel Plate Reader (PerkinElmer, Waltham, Mass.) with a 680 nm excitation filter and a 520-620 nm emission filter.

[2] = biological target: T2, mTOR (Homo sapiens, UniProt P42345); test: In vitro mTOR assay (Lanthascreen); type: biochemical; conditions: average if run more than once
T2 construct: purchased Invitrogen (Carlsbad, Calif.)
From the text: The Invitrogen (Carlsbad, Calif.) mammalian target of rapamycin (mTOR) Lanthascreen assay can be used to quantitate mTOR kinase activity in an in vitro setting. Active mTOR phosphorylates eukaryotic translation initiation factor 4E binding protein 1 (4E-BP1) on residue threonine 46. This phosphorylation event can be detected with a phospho-specific terbium (Tb) labeled Ab, in turn bringing the Tb label in close proximity to the GFP tagged 4E-BP1 and allowing for time-resolved fluorescence resonance energy transfer (TR-FRET), which correlates 4E-BP1 phosphorylation levels with mTOR kinase activity.
Enzyme reaction buffer can be prepared in deionized water containing 50 mM HEPES (pH 7.5), 0.01% Polysorbate 20, 1 mM EGTA, and 10 mM MnCl2.
Dilutions of the compound to be tested can be prepared in 96-well polypropylene plates (Fisher Scientific, Waltham, Mass.). One row represents a 10-point dose of compound diluted 1:3 in enzyme reaction buffer and 20% dimethyl sulfoxide (DMSO). The top concentration for all compounds is 36 μM. Wells 6 and 12 can serve as the no compound (DMSO only) and high compound controls.
An mTOR substrate solution can prepared in enzyme reaction buffer containing 1600 nM green fluorescent protein tagged eukaryotic translation initiation factor 4E binding protein 1 (GFP-4E-BP1) (Invitrogen, Carlsbad, Calif.) and 28 uM adenosine triphosphate (ATP) (Calbiochem, Gibbstown, N.J.).
mTOR enzyme (Invitrogen, Carlsbad, Calif.) can be diluted in enzyme reaction buffer to a working concentration of 100 ng/mL.
The enzyme assay can be run in 384 well low volume assay plates (Corning, Corning, N.Y.). 2.5 uL of substrate solution containing GFP-4E-BP1 and ATP can be added to appropriate wells in the assay plate followed by 2.5 μL of compound dilutions. 5 μL of appropriately diluted mTOR enzyme can be added and the reaction allowed to proceed for 1 hour at room temperature. Final reagent concentrations in the enzyme assay are 50 ng/mL mTOR, 400 nM GFP-4E-BP1, and 7 μM ATP.
The enzyme assay can be terminated upon the addition of 10 μL of 20 mM EDTA and 4 nM Tb-labeled anti-phospho-4E-BP1 [T46] antibody (Invitrogen, Carlsbad, Calif.). The assay plate can then be incubated at room temperature for 1 hour and results read on a Tecan Safire II plate reader (Tecan, Männedorf, Switzerland).

[3] = tested on: phosphorylation of Akt at Serine 473; test: pAkt AlphaScreen (U87 cell); type: cell-based; conditions: Homo sapiens, U-87 MG; U87 MG cells, pAkt Ser473; average
Experimental: pAkt Alphascreen (U87 Cell)
The pAkt AlphaScreen® assay (PerkinElmer, Waltham, Mass.) determines whether there is phosphorylation of Akt at Serine 473 by recruitment of a phosphospecific antibody. This assay was performed using U87 MG cells. The U87 growth media consists of MEM (Gibco, Carlsbad, Calif.) supplemented with 10% FBS (Gibco,), 1× Non-Essential Amino Acids (Gibco,) and 1× Penicillin/Streptomycin/Glutamine (Gibco). The cells were maintained weekly using 0.05% Trypsin (Gibco) and replated in 150 mm TC-Treated Culture Dishes (Corning, Corning, N.Y.).
The first day of the assay, the adherent cells were trypsinized, media was added to the loose cells and cells were mixed to a homogenous mixture. 0.5 ml of the homogenous mixture was counted on the Beckman Coulter® Vi-CELL™ XR (Fullerton, Calif.). 50 frames of cells were counted and the number of viable cells was determined. The cells were then diluted to 0.25 million cells per ml, and centrifuged at 200 rcf for 5 minutes. The media was removed and the cells were reconstituted in fresh media for plating. The cells were plated at 20 μl per well on the PerkinElmer® FlexDrop PLUS in Low Volume 384 Well White Tissue Culture Plates (Corning) with a final cell density of 5K cells per well. The plates were incubated overnight at 37° Celsius, 5% CO2.
On the second day, the compound plates were prepared, the cells were treated with compound and the pAkt reaction mix was added to the cell lysate. 384 well compound plates were prepared containing 1 μl of compound per well starting at 5 mM and diluted 1:2 across the row, resulting in a 22 well serial dilution. 39 μl of growth media was added to the compound plate in rows 1-22 using the PerkinElmer® FlexDrop PLUS resulting in a DMSO concentration of 2.5%. The cell plates and diluted compound plates were put onto the VELOCITY11™ VPREP™ 384 ST where the compound plate was mixed and 5 μl of serially diluted compound or controls was added to the cell plate. The final concentration of the compounds was 25 μM serially diluted to 11.9 pM in 0.5% DMSO. The cell plates were then incubated with compound for two hours at 37° Celsius, 5% CO2. After two hours, the media in the cell plates was aspirated using the BioTek® ELx405HT plate washer (Winooski, Vt.) removing the majority of media and compound without disturbing the adherent U87 cells. The following assay reagents are components of the SureFire® Akt (Ser 473) Phosphorylation 50K Point Kit (TGR BioSciences, Adelaide, Austalia) and an IgG Detection Kit (PerkinElmer, Waltham, Mass.). 5 μl of 1× Lysis Buffer was added to each well using the PerkinElmer® FlexDrop PLUS. The plates were then incubated at room temperature on a shaker for ten minutes. The AlphaScreen® reaction was prepared under low light conditions (subdued or green light) including p-Akt (Ser 473) Reaction Buffer, Dilution Buffer, Activation Buffer, Acceptor Beads and Donor Beads at a ratio of 40:20:10:1:1 respectively. The AlphaScreen® reaction was added to the cell lysate at 6 μl per well using the PerkinElmer® FlexDrop PLUS. The plates were placed in a humid environment to reduce edge effects and incubated overnight at room temperature with restricted air flow in the dark.
On the final day of the experiment, the plates were read on the PerkinElmer® EnVision™ 2103 Multilable Reader using the standard AlphaScreen® readout. The POC is calculated and the data is analyzed to report the IC50 IP for pAkt at Serine 473.
Activity data for the compounds tested in the PI3K cell based Akt assay is provided in Table 2 under the column heading U87

T2 sequence (P42345 1360-2549 limits assumed): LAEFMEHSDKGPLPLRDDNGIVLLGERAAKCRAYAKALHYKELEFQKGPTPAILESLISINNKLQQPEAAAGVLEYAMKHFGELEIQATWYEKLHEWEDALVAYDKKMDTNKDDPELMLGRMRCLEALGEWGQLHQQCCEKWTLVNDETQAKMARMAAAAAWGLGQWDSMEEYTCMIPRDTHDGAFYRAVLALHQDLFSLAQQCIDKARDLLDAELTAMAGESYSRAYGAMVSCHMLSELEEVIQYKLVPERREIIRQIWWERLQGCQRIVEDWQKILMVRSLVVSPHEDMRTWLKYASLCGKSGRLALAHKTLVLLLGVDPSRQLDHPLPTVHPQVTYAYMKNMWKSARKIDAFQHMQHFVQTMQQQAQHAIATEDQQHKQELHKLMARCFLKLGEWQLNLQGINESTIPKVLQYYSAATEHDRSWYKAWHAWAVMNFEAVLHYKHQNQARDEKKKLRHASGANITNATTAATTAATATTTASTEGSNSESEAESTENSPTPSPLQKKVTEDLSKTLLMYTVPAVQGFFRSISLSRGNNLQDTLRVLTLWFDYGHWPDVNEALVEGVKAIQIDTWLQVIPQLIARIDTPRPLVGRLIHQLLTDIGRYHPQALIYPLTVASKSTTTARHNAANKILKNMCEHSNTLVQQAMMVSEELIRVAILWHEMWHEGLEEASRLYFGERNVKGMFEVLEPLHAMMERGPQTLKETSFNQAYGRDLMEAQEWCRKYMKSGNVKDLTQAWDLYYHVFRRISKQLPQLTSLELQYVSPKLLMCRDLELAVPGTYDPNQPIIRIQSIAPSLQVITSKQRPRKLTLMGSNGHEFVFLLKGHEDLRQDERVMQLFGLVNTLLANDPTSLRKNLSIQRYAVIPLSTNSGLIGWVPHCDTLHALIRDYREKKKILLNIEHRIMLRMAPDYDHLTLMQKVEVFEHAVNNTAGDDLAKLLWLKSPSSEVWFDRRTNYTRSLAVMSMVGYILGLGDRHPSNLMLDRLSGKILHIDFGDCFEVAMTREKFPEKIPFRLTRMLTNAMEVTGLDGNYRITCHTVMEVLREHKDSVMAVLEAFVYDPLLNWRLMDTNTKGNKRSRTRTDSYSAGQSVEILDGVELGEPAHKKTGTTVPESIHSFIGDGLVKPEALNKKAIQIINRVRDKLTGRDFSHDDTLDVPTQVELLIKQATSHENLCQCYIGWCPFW
T1 sequence (P42336 whole entry): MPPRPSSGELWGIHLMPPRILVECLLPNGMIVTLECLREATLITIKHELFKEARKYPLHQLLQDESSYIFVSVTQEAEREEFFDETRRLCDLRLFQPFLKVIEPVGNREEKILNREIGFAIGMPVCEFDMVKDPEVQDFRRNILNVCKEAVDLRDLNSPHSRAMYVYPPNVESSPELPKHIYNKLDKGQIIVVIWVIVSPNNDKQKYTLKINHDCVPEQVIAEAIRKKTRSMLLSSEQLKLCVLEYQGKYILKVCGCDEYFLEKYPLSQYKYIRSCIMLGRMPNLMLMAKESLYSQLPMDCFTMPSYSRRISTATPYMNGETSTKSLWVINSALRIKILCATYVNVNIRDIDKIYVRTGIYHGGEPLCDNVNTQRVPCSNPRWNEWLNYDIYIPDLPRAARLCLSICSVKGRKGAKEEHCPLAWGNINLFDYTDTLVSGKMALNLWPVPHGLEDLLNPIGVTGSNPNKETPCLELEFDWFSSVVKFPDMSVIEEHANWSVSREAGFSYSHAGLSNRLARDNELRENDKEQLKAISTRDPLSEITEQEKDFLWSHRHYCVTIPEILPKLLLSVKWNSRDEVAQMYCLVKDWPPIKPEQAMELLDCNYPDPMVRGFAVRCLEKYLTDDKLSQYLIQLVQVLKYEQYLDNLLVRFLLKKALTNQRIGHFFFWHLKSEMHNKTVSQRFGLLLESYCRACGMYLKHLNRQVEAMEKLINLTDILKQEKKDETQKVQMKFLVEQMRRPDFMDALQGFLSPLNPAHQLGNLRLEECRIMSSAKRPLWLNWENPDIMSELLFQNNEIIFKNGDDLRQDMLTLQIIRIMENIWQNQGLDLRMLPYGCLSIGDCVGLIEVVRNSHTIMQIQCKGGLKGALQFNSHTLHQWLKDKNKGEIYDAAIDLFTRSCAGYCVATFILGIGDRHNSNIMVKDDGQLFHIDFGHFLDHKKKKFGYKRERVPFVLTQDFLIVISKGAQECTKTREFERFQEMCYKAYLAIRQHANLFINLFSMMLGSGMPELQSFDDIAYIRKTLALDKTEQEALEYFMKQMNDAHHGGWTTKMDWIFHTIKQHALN
T1 sequence (P27986 whole entry partner): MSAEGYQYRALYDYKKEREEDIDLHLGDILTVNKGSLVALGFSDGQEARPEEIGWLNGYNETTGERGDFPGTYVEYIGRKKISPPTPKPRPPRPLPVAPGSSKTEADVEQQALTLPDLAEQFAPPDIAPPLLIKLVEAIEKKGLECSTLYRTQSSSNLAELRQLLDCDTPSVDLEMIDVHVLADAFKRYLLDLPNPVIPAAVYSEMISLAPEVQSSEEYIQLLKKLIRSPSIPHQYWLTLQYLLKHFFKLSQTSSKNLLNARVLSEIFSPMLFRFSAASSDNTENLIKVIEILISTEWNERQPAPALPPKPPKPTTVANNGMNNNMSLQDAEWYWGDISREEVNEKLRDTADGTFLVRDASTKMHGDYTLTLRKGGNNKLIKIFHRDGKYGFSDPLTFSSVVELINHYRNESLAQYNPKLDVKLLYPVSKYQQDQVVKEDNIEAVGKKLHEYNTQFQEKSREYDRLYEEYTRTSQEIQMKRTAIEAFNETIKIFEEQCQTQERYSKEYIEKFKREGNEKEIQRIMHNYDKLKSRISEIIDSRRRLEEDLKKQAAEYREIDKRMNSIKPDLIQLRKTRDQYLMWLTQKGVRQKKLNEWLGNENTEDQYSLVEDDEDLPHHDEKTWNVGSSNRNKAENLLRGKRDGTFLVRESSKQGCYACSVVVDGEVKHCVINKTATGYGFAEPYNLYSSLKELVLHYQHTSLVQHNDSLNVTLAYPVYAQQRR

Structure (SMILES): Cc1cc(-c2ccnc3ccc(-c4cnc(Cl)c(NS(C)(=O)=O)c4)cc23)ccn1 [Example 105, N-(2-chloro-5-(4-(2-methyl-4-pyridinyl)-6-quinolinyl)-3-pyridinyl)methanesulfonamide]
- Ki [1]: 0.0015 µM
- IC50 [2]: 0.0015 µM
- IC50 [3]: 0.0085 µM

Structure (SMILES): COCCN(C)S(=O)(=O)Nc1cc(-c2ccc3ncc(=O)n(-c4cccc(C(F)(F)F)c4)c3c2)cnc1Cl [Example 134, N-(2-Chloro-5-(3-oxo-4-(3-(trifluoromethyl)phenyl)-3,4-dihydroquinoxalin-6-yl)pyridin-3-yl) 2-methoxy-N-methylethanamino sulfonamide]
- Ki [1]: 0.0185 µM
- IC50 [2]: 0.0042 µM
- IC50 [3]: 0.0283 µM

Structure (SMILES): CS(=O)(=O)Nc1cc(-c2ccc3nccc(-c4ccc(C(F)(F)F)nc4)c3c2)cnc1Cl [Example 112, N-(2-chloro-5-(4-(6-(trifluoromethyl)-3-pyridinyl)-6-quinolinyl)-3-pyridinyl)methanesulfonamide]
- Ki [1]: 0.0021 µM
- IC50 [2]: 0.0021 µM
- IC50 [3]: 0.0091 µM

Structure (SMILES): CS(=O)(=O)Nc1cc(-c2ccc3nccc(-c4cccnc4)c3c2)cnc1-c1cccnc1 [Example 117, N-(5-(4-(Pyridin-3-yl)quinolin-6-yl)-2,3′-bipyridin-3-yl)methanesulfonamide]
- Ki [1]: 0.0053 µM
- IC50 [2]: 0.0015 µM
- IC50 [3]: 0.255 µM

Structure (SMILES): O=S(=O)(Nc1cc(-c2ccc3nccc(-c4ccnc(Cl)c4)c3c2)cnc1Cl)c1ccc(F)cc1 [Example 94, N-(2-chloro-5-(4-(2-chloro-4-pyridinyl)-6-quinolinyl)-3-pyridinyl)-4-fluorobenzenesulfonamide]
- Ki [1]: 0.0013 µM
- IC50 [2]: 0.0006 µM
- IC50 [3]: 0.0053 µM

Structure (SMILES): CN(C)S(=O)(=O)Nc1cc(-c2ccc3nccc(Cl)c3c2)cnc1Cl [Example 125, N′-(2-chloro-5-(4-chloro-6-quinolinyl)-3-pyridinyl)-N,N-dimethylsulfamide]
- Ki [1]: 0.0033 µM
- IC50 [2]: 0.0077 µM
- IC50 [3]: 0.723 µM

Structure (SMILES): O=S1(=O)CCC(Oc2ccnc3ccc(-c4cnc(Cl)c(NS(=O)(=O)c5ccc(F)cc5)c4)cc23)C1 (centres unmarked) [Example 115, N-(2-Chloro-5-(4-(tetrahydrothiophen-1,1-dioxide-3-yloxy)quinolin-6-yl)pyridin-3-yl)-4-fluorobenzenesulfonamide]
- IC50 [2]: 0.0126 µM
- IC50 [3]: 0.194 µM

Structure (SMILES): C[C@@H]1CN(c2ccnc3ccc(-c4cnc(Cl)c(NS(C)(=O)=O)c4)cc23)C[C@@H](C)O1 (racemic) [Example 104, N-(2-chloro-5-(4-(2,6-dimethyl-4-morpholinyl)-6-quinolinyl)-3-pyridinyl)methanesulfonamide]
- Ki [1]: 0.0083 µM
- IC50 [2]: 0.0058 µM
- IC50 [3]: 0.0284 µM

Structure (SMILES): COCCN(C)c1ccnc2ccc(-c3cnc(Cl)c(NS(=O)(=O)N(C)CCOC)c3)cc12 [Example 126, N′-(2-chloro-5-(4-((2-methoxyethyl)(methyl)amino)-6-quinolinyl)-3-pyridinyl)-N-(2-methoxyethyl)-N-methylsulfamide]
- Ki [1]: 0.0801 µM
- IC50 [2]: 0.134 µM
- IC50 [3]: 0.669 µM

Structure (SMILES): COCCN(C)S(=O)(=O)Nc1cc(-c2ccc3ncc(=O)n(-c4ccccc4)c3c2)cnc1Cl [Example 131, N-(2-chloro-5-(3-oxo-4-phenyl-3,4-dihydroquinoxalin-6-yl)pyridin-3-yl) 2-methoxy-N-methylethanaminosulfonamide]
- Ki [1]: 0.0032 µM
- IC50 [2]: 0.0076 µM
- IC50 [3]: 0.0092 µM

Structure (SMILES): C[C@@H]1CN(c2ccnc3ccc(-c4cnc(Cl)c(NS(=O)(=O)c5ccc(F)cc5)c4)cc23)C[C@H](C)O1 [Example 96, N-(2-chloro-5-(4-((2R,6S)-2,6-dimethyl-4-morpholinyl)-6-quinolinyl)-3-pyridinyl)-4-fluorobenzenesulfonamide]
- Ki [1]: 0.0068 µM
- IC50 [2]: 0.011 µM
- IC50 [3]: 0.0375 µM

Structure (SMILES): CN(C)S(=O)(=O)Nc1cc(-c2ccc3nccc(N4CCOCC4)c3c2)cnc1Cl [Example 122, N′-(2-Chloro-5-(4-(4-morpholinyl)-6-quinolinyl)-3-pyridinyl)-N,N-dimethylsulfamide]
- Ki [1]: 0.0065 µM
- IC50 [2]: 0.0182 µM
- IC50 [3]: 0.0163 µM

Structure (SMILES): O=S(=O)(Nc1cc(-c2ccc3nccc(-c4cccnc4)c3c2)cnc1Cl)c1ccc(F)cc1 [Example 93, N-(2-chloro-5-(4-(3-pyridinyl)-6-quinolinyl)-3-pyridinyl)-4-fluorobenzenesulfonamide]
- IC50 [2]: 0.0016 µM
- IC50 [3]: 0.0119 µM

Structure (SMILES): O=S(=O)(Nc1cc(-c2ccc3ncc(-c4ccncc4)nc3c2)cnc1Cl)c1ccc(F)cc1 [Example 121, N-(2-Chloro-5-(3-(pyridin-4-yl)quinoxalin-6-yl)pyridin-3-yl)-4-fluorobenzenesulfonamide]
- IC50 [2]: 0.0057 µM
- IC50 [3]: 0.031 µM

Structure (SMILES): O=c1c2cccnc2ccn1-c1cnc(Cl)c(NS(=O)(=O)c2ccc(F)cc2)c1 [Example 137, N-(2-chloro-5-(5-oxo-1,6-naphthyridin-6(5H)-yl)-3-pyridinyl)-4-fluorobenzenesulfonamide]
- Ki [1]: 0.548 µM
- IC50 [3]: 2.98 µM

Structure (SMILES): CS(=O)(=O)Nc1cc(-c2ccc3nccc(C4CCOCC4)c3c2)cnc1Cl [Example 114, N-(2-Chloro-5-(4-(tetrahydro-2H-pyran-4-yl)quinolin-6-yl)pyridin-3-yl)methanesulfonamide]
- IC50 [2]: 0.0063 µM
- IC50 [3]: 0.0254 µM

Structure (SMILES): O=S(=O)(Nc1cc(-c2ccc3ncc(NCCN4CCOCC4)nc3c2)cnc1Cl)c1ccc(F)cc1 [Example 91, N-(2-chloro-5-(3-((2-(4-morpholinyl)ethyl)amino)-6-quinoxalinyl)-3-pyridinyl)-4-fluorobenzenesulfonamide]
- IC50 [2]: 0.0053 µM
- IC50 [3]: 0.075 µM

Structure (SMILES): O=S(=O)(Nc1cc(-c2ccc3nccc(N4CCN(Cc5ccncc5)CC4)c3c2)cnc1Cl)c1ccc(F)cc1 [Example 89, N-(2-chloro-5-(4-(4-(4-pyridinylmethyl)-1-piperazinyl)-6-quinolinyl)-3-pyridinyl)-4-fluorobenzenesulfonamide]
- IC50 [2]: 0.0039 µM
- IC50 [3]: 0.0223 µM

— patent publication US8415376B2, “Inhibitors of PI3 kinase” (Amgen Inc., priority 2008, dated 2013)
